Tests used:
GP2D cells = assay: Ras cellular assay, growth of cells with K-Ras G12D mutation (CellTiter-Glo); assay type: cell-based; details: cell growth, Example 9, G12D mutation, read-out: IC50 against GP2D cells
SW620 cells = assay: Ras cellular assay, growth of cells with K-Ras G12V mutation (CellTiter-Glo); assay type: cell-based; details: Homo sapiens, SW-620; cell growth, Example 9, G12V mutation; read-out: IC50 against SW620 cells
Outline: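 SW620 (K-Ras G12V) cells, e.g. 800/well in RPMI-1640 with 10% heat-inactivated FBS on standard or ultra-low attachment plates, were dosed the day after plating with e.g. a 10-point 3-fold series. Viability by CellTiter-Glo luminescence about 6 days later; IC50 from four-parameter fit.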

A549 cells = assay: Ras cellular assay, growth of cells with K-Ras G12S mutation (CellTiter-Glo); assay type: cell-based; details: Homo sapiens, cell growth, Example 9, G12S mutation, read-out: IC50 against A549 cells
Outline: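 A549 cells (K-Ras G12S) in RPMI-1640 with 10% heat-inactivated FBS, seeded e.g. 800 per well in standard or ultra-low-attachment 384-well plates, treated next day with a dilution series (e.g. 10-point, 3-fold). Viability by CellTiter-Glo luminescence about 6 days later; IC50 from four-parameter fit.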

K-Ras G12D = target: T1, K-Ras G12D (Homo sapiens, UniProt P01116, G12D); assay: HTRF resonance energy transfer assay, K-Ras G12D / SOS1 interaction; assay type: biochemical; details: HTRF assay of Example 5; read-out: IC50 against K-Ras G12D
T1 construct: made in house; host or cells: E. coli BL21 (DE3)
T1 sequence (P01116 1-188 isoform P01116-2 G12D): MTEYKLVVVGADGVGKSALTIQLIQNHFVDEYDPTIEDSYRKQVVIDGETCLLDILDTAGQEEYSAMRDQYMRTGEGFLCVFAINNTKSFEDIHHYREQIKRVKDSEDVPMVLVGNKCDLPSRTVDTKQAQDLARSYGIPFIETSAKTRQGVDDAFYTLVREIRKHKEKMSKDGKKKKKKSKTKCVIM
Outline: (§1)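 Read-out: HTRF 665/620 nm ratio (excitation 337 nm) after roughly 10 min or longer incubation, used to derive IC50. Donor anti-GST-Eu on GST-K-Ras; acceptor anti-6His-XL665 on His-hSOS1. Duplicate dose series from 10 μM down to 0.01 μM.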

K-Ras G12S = target: T2, K-Ras G12S (Homo sapiens, UniProt P01116, G12S); assay: HTRF resonance energy transfer assay, K-Ras G12S / SOS1 interaction; assay type: biochemical; details: HTRF assay of Example 5; read-out: IC50 against K-Ras G12S
T2 construct: made in house; host or cells: E. coli BL21 (DE3)
T2 sequence (P01116 1-188 isoform P01116-2 G12S): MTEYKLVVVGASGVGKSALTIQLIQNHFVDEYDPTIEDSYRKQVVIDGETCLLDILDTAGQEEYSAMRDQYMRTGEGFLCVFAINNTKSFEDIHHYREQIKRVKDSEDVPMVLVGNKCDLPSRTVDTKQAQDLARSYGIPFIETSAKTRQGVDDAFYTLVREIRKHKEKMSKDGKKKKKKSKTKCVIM
Outline: as §1

K-Ras G12V = target: T3, K-Ras G12V (Homo sapiens, UniProt P01116, G12V); assay: HTRF resonance energy transfer assay, K-Ras G12V / SOS1 interaction; assay type: biochemical; details: HTRF assay of Example 5; read-out: IC50 against K-Ras G12V
T3 construct: made in house; host or cells: E. coli BL21 (DE3)
T3 sequence (P01116 1-188 isoform P01116-2 G12V): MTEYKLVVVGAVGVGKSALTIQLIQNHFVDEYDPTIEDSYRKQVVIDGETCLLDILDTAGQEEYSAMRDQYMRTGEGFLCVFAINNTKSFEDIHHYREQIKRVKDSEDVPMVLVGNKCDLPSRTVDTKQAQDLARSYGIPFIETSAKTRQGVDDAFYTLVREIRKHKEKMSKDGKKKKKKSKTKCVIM
Outline: as §1

K-Ras WT = target: T4, K-Ras WT (Homo sapiens, UniProt P01116); assay: HTRF resonance energy transfer assay, K-Ras WT / SOS1 interaction; assay type: biochemical; details: HTRF assay of Example 5; read-out: IC50 against K-Ras WT
T4 construct: made in house; host or cells: E. coli BL21 (DE3)
T4 sequence (P01116 1-188 isoform P01116-2): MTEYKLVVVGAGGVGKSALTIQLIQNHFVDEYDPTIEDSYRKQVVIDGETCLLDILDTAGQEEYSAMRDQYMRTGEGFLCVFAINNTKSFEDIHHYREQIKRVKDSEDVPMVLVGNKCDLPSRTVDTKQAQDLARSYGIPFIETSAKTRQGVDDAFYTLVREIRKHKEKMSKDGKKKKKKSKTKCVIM
Outline: as §1

IC50 (SW620 cells) [nM]	IC50 (A549 cells) [nM]	IC50 (K-Ras G12D) [nM]	IC50 (K-Ras G12S) [nM]	IC50 (K-Ras G12V) [nM]	IC50 (K-Ras WT) [nM]	SMILES	IC50 (GP2D cells) [nM]
	< 5000	< 100	< 100	< 100	< 100	CCN1CCOc2c(Cl)c(-c3ccc(F)c4sc(N)c(C#N)c34)c(F)c3nc(OC[C@@]45CCCN4C[C@H](F)C5)nc1c23 [Compound 625, 2-amino-4-(8-chloro-4-ethyl-10-fluoro-2-(((2R,7aS)-2-fluorotetrahydro-1H-pyrrolizin-7a(5H)-yl)methoxy)-5,6-dihydro-4H-[1,4]oxazepino[5,6,7-de]quinazolin-9-yl)-7-fluorobenzo[b]thiophene-3-carbonitrile]	< 500
	< 5000					CC1COc2c(Cl)c(-c3ccc(F)c4sc(N)c(C#N)c34)c(F)c3nc(OC[C@@]45CCCN4C[C@H](F)C5)nc(c23)N1CC(F)F (single isomer, unassigned) [Compound 1073]	< 500
< 5000		< 100	< 100	< 100	< 100	C[C@H](O)[C@H]1COc2c(Cl)c(-c3ccc(F)c4sc(N)c(C#N)c34)c(F)c3nc(OC[C@@]45CCCN4C[C@H](F)C5)nc(c23)N1 [Compound 775, 2-amino-4-((5R)-8-chloro-10-fluoro-2-(((2R,7aS)-2-fluorotetrahydro-1H-pyrrolizin-7a(5H)-yl)methoxy)-5-((S)-1-hydroxyethyl)-5,6-dihydro-4H-[1,4]oxazepino[5,6,7-de]quinazolin-9-yl)-7-fluorobenzo[b]thiophene-3-carbonitrile]	< 500
< 5000		< 100	< 100	< 100	< 100	N#Cc1c(N)sc2c(F)ccc(-c3c(Cl)c4c5c(nc(OC[C@@]67CCCN6C[C@H](F)C7)nc5c3F)N[C@@H](C3(O)CC3)CO4)c12 [Compound 1076, 2-amino-4-((R)-8-chloro-10-fluoro-2-(((2R,7aS)-2-fluorotetrahydro-1H-pyrrolizin-7a(5H)-yl)methoxy)-5-(1-hydroxycyclopropyl)-5,6-dihydro-4H-[1,4]oxazepino[5,6,7-de]quinazolin-9-yl)-7-fluorobenzo[b]thiophene-3-carbonitrile]	< 500

More lines, now with the values behind:

SMILES	IC50 (SW620 cells) [nM]	IC50 (A549 cells) [nM]	IC50 (K-Ras G12D) [nM]	IC50 (K-Ras G12S) [nM]	IC50 (K-Ras G12V) [nM]	IC50 (K-Ras WT) [nM]	IC50 (GP2D cells) [nM]
N#Cc1c(N)sc2c(F)ccc(-c3c(Cl)c4c5c(nc(OC[C@@]67CCCN6C[C@H](F)C7)nc5c3F)N(CC3CC3C#N)CCO4)c12 (stereo partly drawn) [Compound 962, 2-amino-4-(8-chloro-4-((2-cyanocyclopropyl)methyl)-10-fluoro-2-(((2R,7aS)-2-fluorotetrahydro-1H-pyrrolizin-7a(5H)-yl)methoxy)-5,6-dihydro-4H-[1,4]oxazepino[5,6,7-de]quinazolin-9-yl)-7-fluorobenzo[b]thiophene-3-carbonitrile]	< 5000	< 5000					< 500
N#Cc1c(N)sc2c(F)ccc(-c3c(Cl)c4c5c(nc(OC[C@@]67CCCN6C[C@H](F)C7)nc5c3F)N(C3CC3)CCCO4)c12 [Compound 1204, 2-amino-4-(9-chloro-4-cyclopropyl-11-fluoro-2-(((2R,7aS)-2-fluorotetrahydro-1H-pyrrolizin-7a(5H)-yl)methoxy)-4,5,6,7-tetrahydro-[1,5]oxazocino[4,3,2-de]quinazolin-10-yl)-7-fluorobenzo[b]thiophene-3-carbonitrile]	< 5000	< 5000					< 500
N#Cc1c(N)sc2c(F)ccc(-c3c(Cl)c4c5c(nc(OC[C@@]67CCCN6C[C@H](F)C7)nc5c3F)N(CC(F)F)C(CO)CO4)c12 (stereo partly drawn) [Compound 1037, 2-amino-4-(8-chloro-4-(2,2-difluoroethyl)-10-fluoro-2-(((2R,7aS)-2-fluorotetrahydro-1H-pyrrolizin-7a(5H)-yl)methoxy)-5-(hydroxymethyl)-5,6-dihydro-4H-[1,4]oxazepino[5,6,7-de]quinazolin-9-yl)-7-fluorobenzo[b]thiophene-3-carbonitrile]	< 5000	< 5000					< 500
N#Cc1c(N)sc2c(F)ccc(-c3c(Cl)c4c5c(nc(OC[C@@]67CCCN6C[C@H](F)C7)nc5c3F)N(C3CCCC3O)CCO4)c12 (stereo partly drawn) [Compound 1017, 2-amino-4-(8-chloro-10-fluoro-2-(((2R,7aS)-2-fluorotetrahydro-1H-pyrrolizin-7a(5H)-yl)methoxy)-4-(2-hydroxycyclopentyl)-5,6-dihydro-4H-[1,4]oxazepino[5,6,7-de]quinazolin-9-yl)-7-fluorobenzo[b]thiophene-3-carbonitrile]		< 5000					< 500
CC[C@H]1COc2c(Cl)c(-c3ccc(F)c4sc(N)c(C#N)c34)c(F)c3nc(OC[C@@]45CCCN4C[C@H](F)C5)nc(c23)N1CC(F)F [Compound 877, 2-amino-4-((5S)-8-chloro-4-(2,2-difluoroethyl)-5-ethyl-10-fluoro-2-(((2R,7aS)-2-fluorotetrahydro-1H-pyrrolizin-7a(5H)-yl)methoxy)-5,6-dihydro-4H-[1,4]oxazepino[5,6,7-de]quinazolin-9-yl)-7-fluorobenzo[b]thiophene-3-carbonitrile]		< 5000					< 500
CN(C)C(=O)C1CC(N2CCOc3c(Cl)c(-c4ccc(F)c5sc(N)c(C#N)c45)c(F)c4nc(OC[C@@]56CCCN5C[C@H](F)C6)nc2c34)C1 (single isomer, unassigned) [Compound 640]		< 5000					< 500
N#Cc1c(N)sc2c(F)ccc(-c3c(Cl)c4c5c(nc(OC[C@@]67CCCN6C[C@H](F)C7)nc5c3F)N(CC(F)F)CCO4)c12 [Compound 748, 2-amino-4-(8-chloro-4-(2,2-difluoroethyl)-10-fluoro-2-(((2R,7aS)-2-fluorotetrahydro-1H-pyrrolizin-7a(5H)-yl)methoxy)-5,6-dihydro-4H-[1,4]oxazepino[5,6,7-de]quinazolin-9-yl)-7-fluorobenzo[b]thiophene-3-carbonitrile]	< 5000		< 100	< 100	< 100	< 100	< 500
N#Cc1c(N)sc2c(F)ccc(-c3c(Cl)c4c5c(nc(OC[C@@]67CCCN6C[C@H](F)C7)nc5c3F)N(CC(F)F)[C@@H](C(F)(F)F)CO4)c12 [Compound 672, 2-amino-4-((R)-8-chloro-4-(2,2-difluoroethyl)-10-fluoro-2-(((2R,7aS)-2-fluorotetrahydro-1H-pyrrolizin-7a(5H)-yl)methoxy)-5-(trifluoromethyl)-5,6-dihydro-4H-[1,4]oxazepino[5,6,7-de]quinazolin-9-yl)-7-fluorobenzo[b]thiophene-3-carbonitrile]	< 5000		< 100	< 100	< 100	< 100	< 500
N#Cc1c(N)sc2c(F)ccc(-c3c(Cl)c4c5c(nc(OC[C@@]67CCCN6C[C@H](F)C7)nc5c3F)N(C3CCOC3)[C@@H](C3(F)CC3)CO4)c12 (single isomer, unassigned) [Compound 772]	< 5000		< 100	< 100	< 100	< 100	< 500
